From the NIST ThermoML archive (doi:10.1021/acs.jced.9b00170)
± gives the expanded uncertainty stated by the source.

Test: activity coefficient (dimensionless); of the first substance listed, at infinite dilution; xn = mol fraction of the nth substance listed
Details: 101.33 kPa, Liquid, Chromatography, x1 = 0

| SMILES | activity coefficient (313.1 K) | activity coefficient (333.1 K) | activity coefficient (353.1 K) |
| --- | --- | --- | --- |
| Cc1ccccc1 [toluene] + CCCC[N+]1(C)CCCC1.O=S(=O)([N-]S(=O)(=O)C(F)(F)F)C(F)(F)F | 1.22 ± 0.04 | 1.29 ± 0.04 | 1.37 ± 0.05 |
| CCCCCCCCCC [decane] + CCCC[N+]1(C)CCCC1.O=S(=O)([N-]S(=O)(=O)C(F)(F)F)C(F)(F)F | 50.1 ± 2.3 | 45.3 ± 2.1 | 40.6 ± 1.9 |
| Cc1ccccc1C [1,2-dimethylbenzene] + CCCC[n+]1ccc(C)cc1.F[B-](F)(F)F | 4.48 ± 0.2 | 4.55 ± 0.21 | 4.59 ± 0.21 |
| CCCCCCCC [octane] + CCCCn1cc[n+](C)c1.F[B-](F)(F)F | 92.2 ± 4.3 | 83.7 ± 3.9 | 72.4 ± 3.4 |
| CC1CCCCC1 [methylcyclohexane] + CCCC[N+]1(C)CCCC1.O=S(=O)([N-]S(=O)(=O)C(F)(F)F)C(F)(F)F | 8.53 ± 0.39 | 7.52 ± 0.34 | 6.76 ± 0.31 |
| CC1CCCC1 [methylcyclopentane] + CCCCn1cc[n+](C)c1.F[B-](F)(F)F | 35.6 ± 1.7 | 30.6 ± 1.4 | 28.8 ± 1.3 |
| CC1CCCCC1 [methylcyclohexane] + CCCCn1cc[n+](C)c1.F[B-](F)(F)F | 45.7 ± 2.1 | 40.5 ± 1.9 | 35.5 ± 1.6 |
| CC1CCCCC1 [methylcyclohexane] + CCCC[n+]1ccc(C)cc1.F[B-](F)(F)F | 41.5 ± 1.9 | 34.8 ± 1.6 | 33.1 ± 1.5 |
| Cc1ccccc1C [1,2-dimethylbenzene] + CCCCn1cc[n+](C)c1.F[B-](F)(F)F | 4.55 ± 0.21 | 4.51 ± 0.21 | 4.49 ± 0.2 |
| CC1CCCC1 [methylcyclopentane] + CCCC[n+]1ccc(C)cc1.F[B-](F)(F)F | 31.3 ± 1.4 | 26.4 ± 1.2 | 25.8 ± 1.2 |
| CCCCCCCCCC [decane] + CCCC[n+]1ccc(C)cc1.F[B-](F)(F)F | 306 ± 14 | 234 ± 11 | 223 ± 11 |
| CCCCCCC [heptane] + CCCC[n+]1ccc(C)cc1.F[B-](F)(F)F | 84.8 ± 4 | 73.7 ± 3.5 | 67.4 ± 3.1 |
| Cc1ccccc1 [toluene] + CCCCn1cc[n+](C)c1.F[B-](F)(F)F | 3.28 ± 0.15 | 3.33 ± 0.15 | 3.4 ± 0.15 |
| Cc1ccccc1C [1,2-dimethylbenzene] + CCCC[N+]1(C)CCCC1.O=S(=O)([N-]S(=O)(=O)C(F)(F)F)C(F)(F)F | 1.57 ± 0.06 | 1.59 ± 0.06 | 1.61 ± 0.06 |
| CCCCCC [hexane] + CCCC[N+]1(C)CCCC1.O=S(=O)([N-]S(=O)(=O)C(F)(F)F)C(F)(F)F | 12.6 ± 0.58 | 10.2 ± 0.47 | 9.5 ± 0.44 |
| CCCCCCCCC [nonane] + CCCC[N+]1(C)CCCC1.O=S(=O)([N-]S(=O)(=O)C(F)(F)F)C(F)(F)F | 33.1 ± 1.5 | 29.2 ± 1.4 | 26.8 ± 1.2 |
| CCCCCCCCCC [decane] + CCCCn1cc[n+](C)c1.F[B-](F)(F)F | 177 ± 8.4 | 144 ± 6.8 | 125 ± 5.9 |
| CCCCCCCC [octane] + CCCC[n+]1ccc(C)cc1.F[B-](F)(F)F | 130 ± 6.1 | 107 ± 5 | 99.8 ± 4.7 |
| CCCCCC [hexane] + CCCCn1cc[n+](C)c1.F[B-](F)(F)F | 56.7 ± 2.6 | 47.8 ± 2.2 | 45.2 ± 2.1 |
| CCCCCCC [heptane] + CCCCn1cc[n+](C)c1.F[B-](F)(F)F | 78.7 ± 3.7 | 69 ± 3.2 | 62.2 ± 2.9 |
| CCCCCCC [heptane] + CCCC[N+]1(C)CCCC1.O=S(=O)([N-]S(=O)(=O)C(F)(F)F)C(F)(F)F | 17 ± 0.79 | 15.3 ± 0.71 | 13.6 ± 0.62 |
| Cc1ccccc1 [toluene] + CCCC[n+]1ccc(C)cc1.F[B-](F)(F)F | 2.66 ± 0.12 | 2.69 ± 0.12 | 2.73 ± 0.12 |
| CCCCCCCC [octane] + CCCC[N+]1(C)CCCC1.O=S(=O)([N-]S(=O)(=O)C(F)(F)F)C(F)(F)F | 23.7 ± 1.1 | 20.8 ± 0.96 | 19.1 ± 0.88 |
| CCCCCC [hexane] + CCCC[n+]1ccc(C)cc1.F[B-](F)(F)F | 59.8 ± 2.8 | 52.4 ± 2.4 | 49 ± 2.3 |
| CCCCCCCCC [nonane] + CCCC[n+]1ccc(C)cc1.F[B-](F)(F)F | 182 ± 8.6 | 153 ± 7.2 | 131 ± 6.2 |
| CC1CCCC1 [methylcyclopentane] + CCCC[N+]1(C)CCCC1.O=S(=O)([N-]S(=O)(=O)C(F)(F)F)C(F)(F)F | 10.3 ± 0.47 | 9.08 ± 0.42 | 8.11 ± 0.37 |
